Data: US8188135B2, “Compounds as cannabinoid receptor ligands” (priority 2008, dated 2012)
Read-outs that look alike come from different tables or passages of the source.

Assays:
human CB2 receptors = molecular target: T1, human CB2 receptors (Homo sapiens, UniProt P34972); test: human CB2 radioligand binding assay ([3H]CP 55,940 competition); conditions: HEK293 membranes, 0.5 nM [3H]CP 55,940
T1 construct: expressed in transfected cells; host or cells: HEK293
Procedure, shortened: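 Displacement of 0.5 nM [3H]CP 55,940 over 0.01 nM-10 μM test compound, measured on human CB2 membranes from stably transfected HEK293 cells. Incubation 90 min at 30 °C in Tris/EDTA/MgCl2/BSA, pH 7.4, then filter-bound radioactivity counted; 10 μM unlabeled CP 55,940 defined nonspecific binding.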

Rat CB1 = molecular target: T2, Rat CB1 (Rattus norvegicus, UniProt P20272); test: rat CB1 cyclase functional assay (HitHunter cAMP); format: cell-based; conditions: HEK cells, forskolin 37 μM
T2 construct: expressed in transfected cells; host or cells: HEK
T2 sequence (P20272 whole entry): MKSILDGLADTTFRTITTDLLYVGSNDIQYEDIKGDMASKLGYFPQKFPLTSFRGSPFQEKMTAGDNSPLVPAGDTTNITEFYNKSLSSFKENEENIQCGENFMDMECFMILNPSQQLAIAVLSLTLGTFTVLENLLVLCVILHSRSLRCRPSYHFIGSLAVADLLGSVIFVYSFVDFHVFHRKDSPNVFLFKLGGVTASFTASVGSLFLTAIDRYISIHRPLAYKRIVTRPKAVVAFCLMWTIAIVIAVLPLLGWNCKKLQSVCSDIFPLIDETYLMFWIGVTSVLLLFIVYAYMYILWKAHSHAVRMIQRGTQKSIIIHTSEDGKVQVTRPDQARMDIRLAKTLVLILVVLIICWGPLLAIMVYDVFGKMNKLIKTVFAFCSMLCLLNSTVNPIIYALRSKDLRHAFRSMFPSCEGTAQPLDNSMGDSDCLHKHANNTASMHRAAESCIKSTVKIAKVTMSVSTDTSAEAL
Experimental: (§1) The cyclase functional assays were performed using the HitHunter™ cAMP assay kit from DiscoveRx (Fremont, Calif.) according to vendor's protocol. Briefly, HEK cells expressing CB2 or CB1 receptors (rat or human) were detached using cell dissociation buffer (Invitrogen, Carlsbad, Calif.), dispersed and placed in suspension at 10,000 cells per well in 96 well plates prior to the assay. Cell suspensions were incubated at 37° C. for 20 min with variable concentrations of test ligands and or 10 μM CP 55,940-positive control in the presence of a fixed concentration of forskolin (18 μM for rat CB2 and 37 μM for rat CB1) in Dulbescco's phosphate-buffered saline (Invitrogen, Carlsbad, Calif.) supplemented with bovine serum albumin (0.01% final concentration). The reactions were terminated by the addition of lysis buffer and the luminescence was detected following the procedure according to the manufacturer's instructions. EC50 values were calculated using sigmoidal dose-response curve fitting from Prism (GraphPad).

rat CB2 [1] = molecular target: T3, rat CB2 (Rattus norvegicus, UniProt Q9QZN9); test: rat CB2 cyclase functional assay (HitHunter cAMP); format: cell-based; set-up: expressed in transfected cells; host or cells: HEK; conditions: HEK cells, forskolin 18 μM
T3 sequence (Q9QZN9 1-360): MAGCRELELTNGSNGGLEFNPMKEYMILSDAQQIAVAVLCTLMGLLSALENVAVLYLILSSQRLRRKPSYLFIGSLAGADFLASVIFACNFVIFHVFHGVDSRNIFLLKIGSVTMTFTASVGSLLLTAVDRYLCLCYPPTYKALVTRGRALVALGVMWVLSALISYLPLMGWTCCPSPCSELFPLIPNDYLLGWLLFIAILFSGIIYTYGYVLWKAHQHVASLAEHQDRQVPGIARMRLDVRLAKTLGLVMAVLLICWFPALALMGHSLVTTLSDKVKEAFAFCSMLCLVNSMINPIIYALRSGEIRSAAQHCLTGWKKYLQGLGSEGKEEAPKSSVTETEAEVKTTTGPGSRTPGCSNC
Experimental: as §1

rat CB2 [2] = molecular target: T3, rat CB2; test: rat CB2 radioligand binding assay ([3H]CP 55,940 competition); set-up: expressed in transfected cells; host or cells: HEK293; conditions: HEK293 membranes, 0.5 nM [3H]CP 55,940
Procedure, shortened: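 Competition binding against 0.5 nM [3H]CP 55,940 (pH 7.4 buffer with 0.5 mg/mL BSA, 30 °C, 45 min), with displacers spanning 0.01 nM–10 μM at five concentrations. Receptor source: stably transfected HEK293 membranes, 20 μg/well. Nonspecific binding defined by 10 μM unlabeled CP 55,940; readout by filtration and counting.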

T1 sequence (P34972 whole entry): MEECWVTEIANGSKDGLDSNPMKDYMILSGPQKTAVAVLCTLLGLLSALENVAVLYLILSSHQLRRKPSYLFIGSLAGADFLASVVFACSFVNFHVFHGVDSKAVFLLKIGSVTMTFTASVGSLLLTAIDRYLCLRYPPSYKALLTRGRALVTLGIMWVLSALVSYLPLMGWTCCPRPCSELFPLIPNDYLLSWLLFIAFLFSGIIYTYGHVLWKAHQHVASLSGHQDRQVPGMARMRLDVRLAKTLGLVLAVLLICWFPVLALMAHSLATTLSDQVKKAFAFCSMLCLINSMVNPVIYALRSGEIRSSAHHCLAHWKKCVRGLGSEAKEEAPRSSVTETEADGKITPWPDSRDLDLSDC

| Structure (SMILES) | Ki (human CB2 receptors; human CB2 (Ki, nM)) | EC50 (Rat CB1; Rat CB1 cyclase (EC50, nM)) | EC50 (rat CB2 [1]; rat CB2 cyclase (EC50, nM)) | Ki (rat CB2 [2]; rat CB2 (Ki, nM)) | Ki (human CB2 receptors; read-out: human CB2 (Ki)) | EC50 (Rat CB1; read-out: Rat CB1 cyclase (EC50)) | EC50 (rat CB2 [1]; read-out: rat CB2 cyclase (EC50)) | Ki (rat CB2 [2]; read-out: rat CB2 (Ki)) |
| --- | --- | --- | --- | --- | --- | --- | --- | --- |
| CC1CCC(COc2ccc(C(F)(F)F)cc2C(=O)N=c2cc(C(C)(C)C)n(C)n2CC2CCCO2)O1 (single isomer, unassigned) [Example 37] | 57 nM | 8590 nM | 0.45 nM | 16 nM | – | – | – | – |
| Cn1c(C(C)(C)C)c/c(=N\C(=O)c2cc(C(F)(F)F)ccc2OC[C@H]2CCCO2)n1C[C@H]1CCCO1 [Example 1, N-{(3E)-5-tert-butyl-1-methyl-2-[(2R)-tetrahydrofuran-2-ylmethyl]-1,2-dihydro-3H-pyrazol-3-ylidene}-2-[(2R)-tetrahydrofuran-2-ylmethoxy]-5-(trifluoromethyl)benzamide] | 51 nM | 5510 nM | 1.1 nM | 23 nM | – | – | – | – |
| Cn1c(C(C)(C)C)c/c(=N\C(=O)c2cc(C(F)(F)F)ccc2OC[C@@H]2CCN2)n1C[C@H]1CCCO1 [Example 2, 2-[(2S)-azetidin-2-ylmethoxy]-N-{(3E)-5-tert-butyl-1-methyl-2-[(2R)-tetrahydrofuran-2-ylmethyl]-1,2-dihydro-3H-pyrazol-3-ylidene}-5-(trifluoromethyl)benzamide] | > 1000 nM | 11200 nM | 0.77 nM | 195 nM | – | – | – | – |
| Cn1c(C(C)(C)C)c/c(=N\C(=O)c2cc(C(F)(F)F)ccc2OCC2CCS(=O)(=O)C2)n1C[C@H]1CCCO1 (stereo partly drawn) [Example 6, N-{(3E)-5-tert-butyl-1-methyl-2-[(2R)-tetrahydrofuran-2-ylmethyl]-1,2-dihydro-3H-pyrazol-3-ylidene}-2-[(1,1-dioxidotetrahydrothien-3-yl)methoxy]-5-(trifluoromethyl)benzamide] | 203 nM | 11200 nM | 7.5 nM | 78 nM | – | – | – | – |
| CCCCn1nc(C(C)(C)C)s/c1=N\C(=O)c1cc(C(F)(F)F)ccc1OCC1CCCCN1C (centres unmarked) [Example 7, N-[(2Z)-3-butyl-5-tert-butyl-1,3,4-thiadiazol-2(3H)-ylidene]-2-[(1-methylpiperidin-2-yl)methoxy]-5-(trifluoromethyl)benzamide] | 2.5 nM | 1060 nM | 2.9 nM | 2.5 nM | – | – | – | – |
| Cn1c(C(C)(C)C)c/c(=N\C(=O)c2cc(C(F)(F)F)ccc2OC[C@@H]2CCCO2)n1C[C@H]1CCCO1 [Example 8, N-{(3E)-5-tert-butyl-1-methyl-2-[(2R)-tetrahydrofuran-2-ylmethyl]-1,2-dihydro-3H-pyrazol-3-ylidene}-2-[(2S)-tetrahydrofuran-2-ylmethoxy]-5-(trifluoromethyl)benzamide] | 13 nM | 6340 nM | 0.59 nM | 4.3 nM | – | – | – | – |
| Cn1c(C(C)(C)C)c/c(=N\C(=O)c2cc(C(F)(F)F)ccc2OC[C@@H]2CCC(=O)N2)n1C[C@H]1CCCO1 [Example 12, N-{(3E)-5-tert-butyl-1-methyl-2-[(2R)-tetrahydrofuran-2-ylmethyl]-1,2-dihydro-3H-pyrazol-3-ylidene}-2-{[(2S)-5-oxopyrrolidin-2-yl]methoxy}-5-(trifluoromethyl)benzamide] | 99 nM | > 27000 nM | 0.79 nM | 46 nM | – | – | – | – |
| Cn1c(C(C)(C)C)c/c(=N\C(=O)c2cc(C(F)(F)F)ccc2OCCN2CCCC2=O)n1C[C@H]1CCCO1 [Example 15] | 193 nM | > 27000 nM | 1.4 nM | 203 nM | – | – | – | – |
| Cn1c(C(C)(C)C)c/c(=N\C(=O)c2cc(C(F)(F)F)ccc2OC[C@@H]2COC(C)(C)O2)n1C[C@H]1CCCO1 [Example 16, N-{(3E)-5-tert-butyl-1-methyl-2-[(2R)-tetrahydrofuran-2-ylmethyl]-1,2-dihydro-3H-pyrazol-3-ylidene}-2-{[(4R)-2,2-dimethyl-1,3-dioxolan-4-yl]methoxy}-5-(trifluoromethyl)benzamide] | 40 nM | > 27000 nM | 0.47 nM | 23 nM | – | – | – | – |
| Cn1c(C(C)(C)C)c/c(=N\C(=O)c2cc(C(F)(F)F)ccc2OCC[C@H]2COC(C)(C)O2)n1C[C@H]1CCCO1 [Example 17, N-{(3E)-5-tert-butyl-1-methyl-2-[(2R)-tetrahydrofuran-2-ylmethyl]-1,2-dihydro-3H-pyrazol-3-ylidene}-2-{2-[(4S)-2,2-dimethyl-1,3-dioxolan-4-yl]ethoxy}-5-(trifluoromethyl)benzamide] | 25 nM | > 27000 nM | 0.7 nM | 36 nM | – | – | – | – |
| Cn1c(C(C)(C)C)c/c(=N\C(=O)c2cc(C(F)(F)F)ccc2OC[C@H]2COC(C)(C)O2)n1C[C@H]1CCCO1 [Example 18, N-{(3E)-5-tert-butyl-1-methyl-2-[(2R)-tetrahydrofuran-2-ylmethyl]-1,2-dihydro-3H-pyrazol-3-ylidene}-2-{[(4S)-2,2-dimethyl-1,3-dioxolan-4-yl]methoxy}-5-(trifluoromethyl)benzamide] | 37 nM | > 27000 nM | 1.8 nM | 22 nM | – | – | – | – |
| Cn1c(C(C)(C)C)c/c(=N\C(=O)c2cc(C(F)(F)F)ccc2NC[C@@H]2CCCO2)n1C[C@H]1CCCO1 [Example 21, N-{(3E)-5-tert-butyl-1-methyl-2-[(2R)-tetrahydrofuran-2-ylmethyl]-1,2-dihydro-3H-pyrazol-3-ylidene}-2-{[(2S)-tetrahydrofuran-2-ylmethyl]amino}-5-(trifluoromethyl)benzamide] | 0.9 nM | 901 nM | 0.19 nM | 0.6 nM | – | – | – | – |
| Cn1c(C(C)(C)C)c/c(=N\C(=O)c2cc(C(F)(F)F)ccc2NC[C@H]2CCCO2)n1C[C@H]1CCCO1 [Example 23, N-{(3E)-5-tert-butyl-1-methyl-2-[(2R)-tetrahydrofuran-2-ylmethyl]-1,2-dihydro-3H-pyrazol-3-ylidene}-2-{[(2R)-tetrahydrofuran-2-ylmethyl]amino}-5-(trifluoromethyl)benzamide] | 4.7 nM | 3420 nM | 0.37 nM | 2.8 nM | – | – | – | – |
| Cn1c(C(C)(C)C)c/c(=N\C(=O)c2cc(C(F)(F)F)ccc2OC[C@H]2OCC[C@H]2F)n1C[C@H]1CCCO1 [Example 24] | 16 nM | 9200 nM | 0.28 nM | 20 nM | – | – | – | – |
| Cn1c(C(C)(C)C)c/c(=N\C(=O)c2cc(C(F)(F)F)ccc2OC[C@@H]2C=CCO2)n1C[C@H]1CCCO1 [Example 25, N-{(3E)-5-tert-1-methyl-2-[(2R)-tetrahydrofuran-2-ylmethyl]-1,2-dihydro-3H-pyrazol-3-ylidene}-2-[(2S)-2,5-dihydrofuran-2-ylmethoxy]-5-(trifluoromethyl)benzamide] | – | – | – | – | 31 nM | 531 nM | 0.3 nM | 20 nM |
| Cn1c(C(C)(C)C)c/c(=N\C(=O)c2cc(C(F)(F)F)ccc2OC[C@@H]2CCCO2)n1CC1CC1 [Example 27, N-[(3E)-5-tert-butyl-2-(cyclopropylmethyl)-1-methyl-1,2-dihydro-3H-pyrazol-3-ylidene]-2-[(2S)-tetrahydrofuran-2-ylmethoxy]-5-(trifluoromethyl)benzamide] | 23 nM | 3370 nM | 0.2 nM | 9.4 nM | – | – | – | – |
| Cn1c(C(C)(C)C)c/c(=N\C(=O)c2cc(C(F)(F)F)cc(Cl)c2OC[C@@H]2CCCO2)n1C[C@H]1CCCO1 [Example 28, N-{(3E)-5-tert-butyl-1-methyl-2-[(2R)-tetrahydrofuran-2-ylmethyl]-1,2-dihydro-3H-pyrazol-3-ylidene}-3-chloro-2-[(2S)-tetrahydrofuran-2-ylmethoxy]-5-(trifluoromethyl)benzamide] | 44 nM | 8090 nM | 0.91 nM | 15 nM | – | – | – | – |
